# Results: US5091370A, “Angolamycin derivatives” (Sanraku Incorporated, priority 1989, dated 1992)
# Test: Stability test against a mouse liver homogenate
# Type: in vitro ADME, ICR-strain mice
# Details: mouse liver homogenate supernatant, pH 7.2, 37° C., unchanged product remaining by TLC/chromatoscanner (283 nm), read-out: Residual activity ratio (%)
# Procedure: The livers of ICR-strain mice were homogenized together with 5 times their amount of 0.1M phosphate buffer (pH 7.2) in a Potter homogenizer (3000 rpm, 10 minutes). One ml of 500 micrograms/ml of a test compound (10% methanol water) was added to the supernatant (1 ml) of the homogenate, and reacted at 37° C. for 1 hour. The mixture was heated at 100° C. of 3 minutes. Then, 1 ml of 0.1M phosphate buffer (pH 9.0) was added, and the mixture was extracted with 1 ml of ethyl acetate, organic layer was subjected to silica gel thin-layer chromatography (chloroform/methanol/ammonia=15/1.2/0.1), and by a chromatoscanner (283 nm), the ratio of an unchanged product and a hydrolyzed product formed was determined. The amount of the unchanged product remaining was expressed by percentage.
row,remaining at 1 h [%],Structure (SMILES)
1,94,"CCC1OC(=O)CC(O)C(C)C(OC2CC(N(C)C)C(OC3CC(C)(O)C(OC(=O)Cc4ccc(C(C)=O)cc4)C(C)O3)C(C)O2)C(CC=O)CC(C)C(=O)/C=C/C2(C)OC2C1COC1OC(C)C(O)C(OC)C1OC (stereo not drawn) [Compound (1), 4""-O-(p-acetylphenylacetyl)-angolamycin]"
2,95,"CCC1OC(=O)CC(O)C(C)C(OC2CC(N(C)C)C(OC3CC(C)(O)C(OC(=O)Cc4ccc(OC)cc4)C(C)O3)C(C)O2)C(CC=O)CC(C)C(=O)/C=C/C2(C)OC2C1COC1OC(C)C(O)C(OC)C1OC (stereo not drawn) [Compound (2), 4""-O-(p-methoxyphenylacetyl)-angolamycin]"
3,55,"CCC1OC(=O)CC(O)C(C)C(OC2CC(N(C)C)C(OC3CC(C)(O)C(OC(=O)CC(C)C)C(C)O3)C(C)O2)C(CC=O)CC(C)C(=O)/C=C/C2(C)OC2C1COC1OC(C)C(O)C(OC)C1OC (stereo not drawn) [Control compound (1), 4""-O-isovaleryl angola-mycin, reference compound]"
